Measurements taken from patent US9173876B2, “Preparation and therapeutic applications of (2S,3R)-N-2-((3-pyridinyl)methyl)-1-azabicyclo[2.2.2]oct-3-yl)-3,5-difluorobenzamide” (Targacept, Inc., priority 2009, dated 2015).

Legend:
[1] = system: normal rats; assay: Novel object recognition (NOR) task; assay type: in vivo, rat; settings: for Duration of Effect, NOR (time after dosing): after 3rd administration; for Minimum Effective Dose (MED), NOR: oral, rats, follow-up study FIG. 2
Method: Memory was assessed by using the three-trial novel object recognition test. On the first day (exploratory trial), rats were allowed to explore an open arena (44.5×44.5×30.5 cm) for 6 min. On the second day (acquisition trial), rats were allowed to explore the same arena in the presence of two identical objects (both object A) for 3 minutes. On the third day (retention or recall trial), performance was evaluated by allowing the same animal to re-explore the arena for 3 minutes in the presence of two different objects: the familiar object A and a novel object B. An inter-trial interval of 24 hours was imposed between the three NOR trials. Recognition memory was assessed by comparing the time spent exploring a novel (object B) versus a familiar (object A) object during the recall trial. Recognition index was assessed for each animal and expressed as a ratio ((time B/time A+time B)×100).

[2] = system: STZ rat model of diabetic neuropathy; assay: Streptozotocin (STZ)-induced diabetic neuropathy, Von Frey allodynia; assay type: in vivo; settings: for Tactile allodynia (Von Frey): 30 min after administration
Method: Diabetes was induced by a 0.5 ml injection of streptozotocin (60 mg/kg) dissolved in citrate buffer (pH=6) into the tail vein of each rat. The development of diabetes was confirmed by measuring the blood glucose levels (BGL) of all animals on study day 3 (BGL>300 mg/dL). […] These animals were tested again for their BGL at study day 23.
(2S,3R)—N-2-((3-pyridinyl)methyl)-1-azabicyclo[2.2.2]oct-3-yl)-3,5-difluorobenzamide (0.1, 1 or 10 mg/kg p.o.) was administered as a solution of the hydrochloride salt in water once daily starting on study day 14 or study day 16 and continuing through study day 21 or 23, respectively. The control article gabapentin (in 0.9% saline, 150 mg/kg i.p.) was only administered on allodynia test days. Test item, vehicle or control article administration was based on evaluation of allodynia on study day 14. If allodynia was not present on study day 14, the animal was evaluated again at study day 16. Pain response was measured either on study days 14 and 21 or 16 and 23, 30 minutes after Test Item administration.
For the allodynia assessments, Von Frey filaments were used according to the methods of Chaplan and colleagues (1994). Briefly, the rats were placed in an enclosure and positioned on a metal mesh surface, but allowed to move freely. The rats' cabins were covered with red cellophane to diminish environmental distributions. The test began after cessation of exploratory behavior.
When the tip of a Von Frey fiber of given length and diameter was pressed against the skin at right angles, the force of application increases as long as the researcher continued to advance the probe until the fiber bent. After the fiber bent, the probe was advanced, causing the fiber to bend more, but without additional force being applied. The animal would indicate sensation by pulling back its paw. In the absence of a paw withdrawal response to the initially selected filament, a stronger stimulus was presented: in the event of paw withdrawal, the next weaker stimulus was chosen. In this fashion, the resulting pattern of positive and negative responses was used to determine the paw withdrawal threshold.
The set of Von Frey monofilaments provide an approximate logarithmic scale of actual force and a linear scale of perceived intensity. Below is a table showing the force (g) and its corresponding size of monofilaments.
All normally distributed data are presented as means±SEM, as well as the animals' individual values followed by a student T-test (Software: Microsoft® Excel). A p value<0.05 is considered to represent a significant difference. Due to the non-normal distribution of the allodynia data, descriptions of those data are provided as both mean (+SEM) and median values in order to represent their imprecise nature and skewed distribution.

[3] = system: db/db mouse; assay: Murine model of type 2 diabetes mellitus (db/db mouse); assay type: in vivo; settings: 1.0 mg/kg oral once daily
Source text: The db/db mouse, a well established model of type 2 diabetes mellitus, is a leptin-deficient mutant that expresses an obese phenotype and also commonly expresses metabolic symptoms including hyperglycemia, hyperlipidemia and hyperinsulinemia (Halaas et al., 1995 and Lee et al., 1996). This experimental animal model of diabetes was employed in a study designed to determine the effects of (2S,3R)—N-2-((3-pyridinyl)methyl)-1-azabicyclo[2.2.2]oct-3-yl)-3,5-difluorobenzamide on body mass and several additional metabolic parameters.
In this study, (2S,3R)—N-2-((3-pyridinyl)methyl)-1-azabicyclo[2.2.2]oct-3-yl)-3,5-difluorobenzamide was repeatedly administered orally (via gavage) at 1.0 mg/kg once daily starting from the age of approximately 3 weeks and continuing throughout the 7-week study. Nondiabetic heterozygote littermate mice (db/+; designated “Db”) were used as controls. Body weight and food intake were determined twice weekly. The α7 antagonist methyllycaconitine (MLA) was also given concurrently via gavage at 3 mg/kg daily to selected cohorts of db/db (designated “db”) or db/+mice. At the end of the 7-week dosing regimen, total growth rates (overall body weight gain) and average daily food intake were calculated. In addition, glucose levels were assessed in mice fasted overnight. Furthermore, blood sample analytes from mice fasted overnight were collected for measurements of tumor necrosis factor-a (TNF-α), triglycerides and glycosylated hemoglobin (HbA1c). All data are expressed as mean±SEM. For each parameter investigated, differences among all groups were compared by one-way ANOVA with post-hoc Neuman-Keuls multiple comparison test.

SMILES: O=C(N[C@@H]1C2CCN(CC2)[C@H]1Cc1cccnc1)c1cc(F)cc(F)c1 [Compound A]
- NOR effect after single oral administration (recall only session) ([1]; 0.28 μmol/kg oral on day 3 only): pro-cognitive effects
- Recognition index ([1]; 0.28 μmol/kg oral, 0.5 h after dosing, FIG. 3): 68±4%
- Recognition index ([1]; 0.28 μmol/kg oral, 2 h after dosing, FIG. 3): 71±2%
- Recognition index ([1]; 0.28 μmol/kg oral, 6 h after dosing, FIG. 3): 62±2%
- Recognition index ([1]; 0.28 μmol/kg oral, 24 h after acquisition trial, FIG. 1, vehicle 54±1%): 74±3%
- Recognition index ([1]; 0.84 μmol/kg oral, 0.5 h after dosing, FIG. 4): 59±2%
- Recognition index ([1]; 0.84 μmol/kg oral, 2 h after dosing, FIG. 4): 63±2%
- Recognition index ([1]; 0.84 μmol/kg oral, 6 h after dosing, FIG. 4): 68±3%
- Recognition index ([1]; 0.84 μmol/kg oral, 18 h after dosing, FIG. 4): 68±3%
- Recognition index ([1]; 0.84 μmol/kg oral, 24 h after acquisition trial, FIG. 1, vehicle 54±1%): 70±4%
- Duration of Effect, NOR (time after dosing) ([1]; 0.1 mg/kg (0.28 μmol/kg) oral, FIG. 3, listed as (2S,3R)-N-2-((3-pyridinyl)methyl)-1-azabicyclo[2.2.2]oct-3-yl)-3,5-difluorobenza): Duration 6 h (@ 0.1 mg/kg)
- Duration of Effect, NOR (time after dosing) ([1]; 0.3 mg/kg (0.84 μmol/kg) oral, FIG. 4, listed as (2S,3R)-N-2-((3-pyridinyl)methyl)-1-azabicyclo[2.2.2]oct-3-yl)-3,5-difluorobenza): Duration 18 h (@ 0.3 mg/kg)
- Duration of Effect, NOR (time after dosing) ([1]; 0.3 mg/kg (0.84 μmol/kg) oral, FIG. 4, listed as Formula I): ≤ 18 h
- Doses with statistically significant effect in NOR ([1]; NOR vs. dose, FIG. 1): ≥ 0.1 mg/kg
- Doses with statistically significant effect in NOR ([1]; minimum effective dose study, FIG. 2): ≥ 0.03 mg/kg
- Minimum Effective Dose (MED), NOR ([1]; listed as (2S,3R)-N-2-((3-pyridinyl)methyl)-1-azabicyclo[2.2.2]oct-3-yl)-3,5-difluorobenza): MED = 0.084 μmol/kg
- Minimum Effective Dose (MED), NOR ([1]; listed as (2S,3R)—N-2-((3-pyridinyl)methyl)-1-azabicyclo[2.2.2]oct-3-yl)-3,5-difluorobenza): 0.084 µmol/kg
- Diabetic neuropathy pain, Von Frey assessment ([2]; 1 mg/kg and 10 mg/kg, compared to vehicle, FIG. 14): effective in reducing diabetic neuropathy pain
- Tactile allodynia (Von Frey) ([2]; 1 mg/kg p.o., study days 14/16, vs pretreatment p<0.01, vs vehicle p<0.05): inhibited allodynia
- Tactile allodynia (Von Frey) ([2]; 1 mg/kg p.o., study days 21/23, vs pretreatment p=0.012): inhibited allodynia
- Tactile allodynia (Von Frey) ([2]; 10 mg/kg p.o., study days 14/16, vs pretreatment p=0.012): inhibited allodynia
- Tactile allodynia (Von Frey) ([2]; 10 mg/kg p.o., study days 21/23, vs vehicle p<0.05): inhibited allodynia
- All parameters measured (body weight gain, food intake, glucose, HbA1c, TNF-α, triglycerides) ([3]; 7 weeks, obese db/db mice vs vehicle): significant decrease in all parameters measured
- Average daily food consumption ([3]; 7 weeks, obese mice vs obese controls, FIG. 16): significantly lower
- Triglyceride levels ([3]; 7 weeks, obese mice vs vehicle, FIG. 20): significantly lower
- Total body weight gain ([3]; 7 weeks, obese mice, FIG. 15): significantly lower
- Fasting plasma glucose levels ([3]; 7 weeks, obese mice, FIG. 17): significantly inhibited
- Glycosylated HbA1c levels ([3]; 7 weeks, obese mice, FIG. 18): significantly inhibited
- Pro-inflammatory cytokine TNF alpha ([3]; 7 weeks, obese mice, FIG. 19): significantly reduced
- Food consumption ([3]; lean mice (Db), FIG. 16): unaffected
